Reference: PMC6277555, “Short Symmetric-End Antimicrobial Peptides Centered on β-Turn Amino Acids Unit Improve Selectivity and Stability” (Frontiers in Microbiology, 2018)
Values after ≈ are worked out from the molar mass of the structure shown. Residues, ends and D or L forms follow the SMILES beside them.

What was measured:
S. aureus ATCC 29213 = type: cell-based, Staphylococcus aureus
Description: The minimal inhibitory concentration (MIC) was determined according to a previously described method ([Chou et al., 2016]). Bacteria were cultured overnight to mid-log phase in MHB at 37°C and then diluted to give final concentrations ranging from 2 × 10^5 to 7 × 10^5 CFU/mL. Then, 50 μL of serial twofold dilutions of the peptides were added to each well in 96-well microtiter plates with a mixed solution containing 0.01% acetic acid and 0.2% bovine serum albumin (BSA, Sigma) was used to dissolve and dilute the peptides. Then, equal amounts of bacterial aliquots were incubated with the above peptide solution for 18-24 h at 37°C. The experiment was performed in triplicate using three replicates for each peptide and each bacterium. The broth was employed as a negative control and the broth with microbial cells was used as a positive control. The lowest concentration of peptide that prevented visible turbidity was defined as the MIC. The condition sensitivity of peptides was tested in an MIC assay in different environments, including salt sensitivity, thermal sensitivity and different pH values similar to our previous method ([[…] et al., 2008]; [Ma et al., 2012]). […] For the heat resistance experiments, the peptides were incubated at 100°C for 30 min and cooled on ice for 10 min. […] The determination methods for these MIC assays were same as described above. To test the effects of serum on the antimicrobial activities of the peptides, human serum was dissolved in MHB to reach final concentrations of 25 and 50%. The determination methods for these MIC assays were same as described above.

S. pullorum C79-13 = type: cell-based, Salmonella pullorum
Description: The minimal inhibitory concentration (MIC) was determined according to a previously described method ([Chou et al., 2016]). Bacteria were cultured overnight to mid-log phase in MHB at 37°C and then diluted to give final concentrations ranging from 2 × 10^5 to 7 × 10^5 CFU/mL. Then, 50 μL of serial twofold dilutions of the peptides were added to each well in 96-well microtiter plates with a mixed solution containing 0.01% acetic acid and 0.2% bovine serum albumin (BSA, Sigma) was used to dissolve and dilute the peptides. Then, equal amounts of bacterial aliquots were incubated with the above peptide solution for 18–24 h at 37°C. The experiment was performed in triplicate using three replicates for each peptide and each bacterium. The broth was employed as a negative control and the broth with microbial cells was used as a positive control. The lowest concentration of peptide that prevented visible turbidity was defined as the MIC.

hRBCs = assay: Hemolytic activity; type: cell-based, human; conditions: peptide concentration resulting in 5% hemolysis of hRBCs; PBS, 1 h, 37°C
Description: The hemolytic activity of the peptides was detected using a previously described modified method ([Wang et al., 2015]). One milliliter of fresh hRBCs was obtained from a healthy donor (Zhihua Wang, Harbin, China) in a polycarbonate tube containing heparin. The collected hRBCs were centrifuged at 1000 × g for 5 min at 4°C and resuspended in PBS buffer (pH 7.2). The hRBCs were washed three times and then incubated with an equal volume of the respective peptide dissolved in PBS for 1 h at 37°C. Then, the hRBC suspension was placed into a 96-well microtiter plater with 50 μL of tested peptide solution at different concentrations and the mixture was incubated for 1 h at 37°C. […] The minimum hemolytic concentrations (MHCs) were defined as the peptide concentrations resulting in 5% hemolysis.

[1] = Calcein dye leakage from negatively charged LUVs; conditions: POPG/CL (3:1) LUVs, 100 μM lipid, 15 min, all tested concentrations (2 to 64 μM); relative to 0.1% Triton X-100
Description: Prepared calcein-entrapped large unilamellar vesicles (LUVs) were optimized using a previous method ([Stromstedt et al., 2009]). The negatively charged lipids composed of POPG/CL (3:1) were dissolved in chloroform, dried with a stream of nitrogen and resuspended in dye buffer solution (70 mM calcein, 10 mM Tris, 150 mM NaCl, and 0.1 mM EDTA, pH 7.4). The suspension was subjected to 10 freeze-thaw cycles in liquid nitrogen and extruded 21 times through polycarbonate filters (two stacked 100-nm pore size filters) with a LiposoFast extruder (Avestin, Inc., Canada). Untrapped calcein was removed by gel filtration on a Sephadex G-50 column. The lipid concentration was determined by quantitative phosphorus analysis. […] The leakage of calcein from LUVs was monitored by measuring the fluorescence intensity at an excitation wavelength of 490 nm and an emission wavelength of 520 nm on an F-4500 Fluorescence Spectrophotometer (Hitachi, Japan). […] The percentage of the calcein release caused by the AMPs was calculated using the following equation: (3) Dye release (%)=(Fobs−F0)/(F100−F0)×100% where F0 is the fluorescence intensity of the liposomes (background) and Fobs and F100 are the fluorescence intensities achieved by the peptides and Triton X-100, respectively.

[2] = RP-HPLC retention time as measure of relative hydrophobicity; type: physicochemical; conditions: analytical RP-HPLC; hydrophobicity increases with retention time
Description: These peptides' […] identified via matrix-assisted laser desorption/ionization time-of-flight mass spectrometry (MALDI-TOF MS, Linear Scientific Inc., United States), using α-cyano-4-hydroxycinnamic acid as the matrix. […] Quantitative peptides were dissolved in deionized water and stored at -20°C before the assessments. The rest of the peptides were stored as powders at -20°C to prevent peptide degradation. The structures and molecular weights of the peptides were verified by MALDI-TOF MS. […] The relative hydrophobicity of the symmetric-end peptides was reliably reflected by their different HPLC retention times, and the hydrophobicity increased with increasing HPLC retention times ([Lee et al., 2014]; [Zhu et al., 2014]). The HPLC retention times for […]

## CC[C@H](C)[C@H](N)C(=O)N[C@@H](Cc1c[nH]cn1)C(=O)N[C@@H](CCCCN)C(=O)N[C@@H](Cc1ccccc1)C(=O)N[C@@H](Cc1c[nH]c2ccccc12)C(=O)N[C@@H](CCCNC(=N)N)C(=O)N[C@@H](CS)C(=O)N[C@@H](CCCNC(=N)N)C(=O)N[C@@H](CCCNC(=N)N)C(=O)N[C@@H](CCCNC(=N)N)C(=O)N[C@@H](Cc1ccccc1)C(=O)N[C@@H](CS)C(=O)N[C@@H](CCCNC(=N)N)C(=O)N[C@@H](Cc1c[nH]c2ccccc12)C(=O)N[C@@H](Cc1ccccc1)C(=O)N[C@@H](CCCCN)C(=O)N[C@@H](Cc1c[nH]cn1)C(=O)N[C@H](C(N)=O)[C@@H](C)CC [PQ] (H-IHKFWRCRRRFCRWFKHI-NH2; N-terminus assumed)
S. aureus ATCC 29213; ATCC 29213
  MIC: 8 µM (≈ 20.6 µg/mL)
  MIC, CaCl2: 8 µM (≈ 20.6 µg/mL)
  MIC, Control: 8 µM (≈ 20.6 µg/mL)
  MIC, FeCl3: 8 µM (≈ 20.6 µg/mL)
  MIC, Heat (100°C): 32 µM (≈ 82.4 µg/mL)
  MIC, KCl: 8 µM (≈ 20.6 µg/mL)
  MIC, MgCl2: 8 µM (≈ 20.6 µg/mL)
  MIC, NH4Cl: 8 µM (≈ 20.6 µg/mL)
  MIC, NaCl: 8 µM (≈ 20.6 µg/mL)
  MIC, ZnCl2: 8 µM (≈ 20.6 µg/mL)
S. aureus ATCC 29213; ATCC 29213, pH 4
  MIC, pH 4.0: 8 μM
S. aureus ATCC 29213; ATCC 29213, pH 6
  MIC, pH 6.0: 8 μM
S. aureus ATCC 29213; ATCC 29213, pH 8
  MIC, pH 8.0: 8 μM
S. aureus ATCC 29213; ATCC 29213, pH 10
  MIC, pH 10.0: 8 μM
S. pullorum C79-13
  MIC: 8 µM (≈ 20.6 µg/mL)
hRBCs
  MHC (minimum hemolytic concentration): >128 µM
[1]
  Dye leakage (calcein release): more than 40%
[2]
  Retained time (HPLC retention time): 12.385 min
